The test system of one experiment is DDK. Conditions: read-out: DDK IC50 (in vitro); cited from earlier work.
Experiment [1] has as its target T1, purified DDK (Homo sapiens, UniProt O00311).
T1 construct: His6-Smt3 (SUMO) (N, cleaved yes); made in house; host or cells: E. coli BL21-RIPL (pKT37, pETDuet-1 vector)
Kind of experiment: In vitro (γ)-32P ATP DDK kinase assay (DDK auto-phosphorylation). It is filed as biochemical. Conditions: increasing inhibitor concentrations.

In experiment [2] the target is T1, purified DDK. Kind of experiment: DDK thermal stability shift assay (TSA). It is filed as binding.
The test system of experiment [3] is Mcm2 Serine 53 phosphorylation in HCC1954 cells. In words: Immunoblot of DDK-dependent Mcm2 phosphorylation. It is filed as cell-based. On the procedure:
Whole cell extracts were prepared by re-suspending the pellets in RIPA buffer (150 mM NaCl, 1% NP-40, 0.5% sodium deoxycholate, 0.1% SDS, 50 mM Tris HCl, pH 8) containing protease inhibitors (100 µM PMSF, 1 mM Benzamide, 2.5 µg/ml Pepstatin A, 10 µg/ml Leupeptin, and 10 µg/ml Aprotinin) and phosphatase inhibitors (1 mM each NaF, Na3VO4 and Na4P2O7). Protein concentration was measured using the BCA protein assay kit (Pierce) according to manufacturer's protocol. Equal amounts of protein were subjected to SDS-PAGE and transferred to a nitrocellulose membrane (Millipore). Transfer efficiency and equal loading was confirmed by Ponceau S staining. Following primary and secondary antibody treatments, proteins were visualized using SuperSignal West Pico solutions (Thermo Scientific). Anti-Mcm2 and anti-S53-phospho-Mcm2 antibodies were purchased from Bethyl Laboratories; anti-β-actin was from Sigma; anti-mouse and anti-rabbit HRP antibodies were from GE Healthcare; and anti-Cdc7 and anti-Dbf4 antibodies were described previously.
Effective cellular uptake of the DDK inhibitor should compromise DDK activity in vivo. Among the many targets of DDK are components of the replicative Mcm2–7 helicase. Serine 53 of Mcm2 subunit is a well-characterized target site for DDK mediated phosphorylation. We quantitated levels of phosphorylation on this site as a measure of DDK activity in vivo. […] Cells were then harvested at 0, 24, 48, and 72 hours post drug addition to measure viable cells and Mcm2 phosphorylation by immunoblotting.
Background: Immunoblotting shows a protein as a band on a membrane.

The test system of experiment [4] is HCC1954 cells. In words: Caspase 3/7 activity (apoptosis). It is filed as cell-based. On the procedure:
Caspase 3/7 activity and viable cell number were then measured using the Caspase-Glo 3/7 assay (Promega) and CellTiter-Glo assay (Promega), respectively.

For experiment [5], the system named is HCC1954 cells. Kind of experiment: Cell viability, CellTiter-Glo. It is filed as cell-based. Conditions: Homo sapiens, HCC1954, 72 h, HCC1954, 72 hrs post drug addition.
The subject of a further experiment is PKR. Details: method as in PMID 12890478. To be noted: cited from earlier work.
Setting [6] is: titration, beginning at a 1 µM concentration.
Where [7] appears, read: library screen, 20 µM compound, 20 µM.

Where “and” joins values, the source holds several entries; their conditions need not be identical. Equal entries are not always repeated. Structures can show the parent of a compound that is named as a salt.

T1 sequence (O00311 whole entry): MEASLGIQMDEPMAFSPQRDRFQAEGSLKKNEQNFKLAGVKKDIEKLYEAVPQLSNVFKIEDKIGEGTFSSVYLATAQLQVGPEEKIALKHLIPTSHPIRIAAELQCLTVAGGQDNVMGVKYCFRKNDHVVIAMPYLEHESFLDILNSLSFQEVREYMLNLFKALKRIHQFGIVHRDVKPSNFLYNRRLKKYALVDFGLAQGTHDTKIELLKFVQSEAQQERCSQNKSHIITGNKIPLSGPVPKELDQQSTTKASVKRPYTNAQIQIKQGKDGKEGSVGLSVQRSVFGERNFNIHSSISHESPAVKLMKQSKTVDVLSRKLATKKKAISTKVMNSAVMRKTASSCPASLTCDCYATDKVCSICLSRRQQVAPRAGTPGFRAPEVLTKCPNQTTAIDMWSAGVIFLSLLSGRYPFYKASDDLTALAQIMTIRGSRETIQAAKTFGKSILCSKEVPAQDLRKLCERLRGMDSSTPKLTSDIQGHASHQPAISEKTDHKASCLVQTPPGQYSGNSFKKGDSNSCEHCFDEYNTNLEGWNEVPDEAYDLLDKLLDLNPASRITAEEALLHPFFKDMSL
T1 sequence (Q9UBU7 341-674 partner limits assumed): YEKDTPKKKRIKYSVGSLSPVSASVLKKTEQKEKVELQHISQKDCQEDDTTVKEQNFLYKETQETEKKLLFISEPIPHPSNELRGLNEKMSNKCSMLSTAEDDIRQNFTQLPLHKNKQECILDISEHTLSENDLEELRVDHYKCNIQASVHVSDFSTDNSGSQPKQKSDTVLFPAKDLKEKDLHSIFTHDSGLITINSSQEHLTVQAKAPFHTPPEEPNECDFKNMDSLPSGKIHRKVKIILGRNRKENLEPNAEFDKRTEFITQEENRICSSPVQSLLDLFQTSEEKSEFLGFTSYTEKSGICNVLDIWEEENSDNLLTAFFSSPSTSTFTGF

In the case of `N#Cc1ccc2ccn(-c3cc(N)ncn3)c2n1` [1-(6-aminopyrimidin-4-yl)pyrrolo[2,3-b]pyridine-6-carbonitrile], the concentration for half-maximal inhibition (IC50) with DDK was 9 nM. On to `Nc1nccc(-c2cc3c([nH]2)[C@@H](CCF)CNC3=O)n1` [[(S )-2-(2-aminopyrimidin-4-yl)-7-(2-fluoro-ethyl)-1,5,6,7-tetrahydropyrrolo[3,2-c]pyridin-4-one], for which, in the experiment on DDK, the IC50 is 2 nM.

The compound `c1ccc2c(-c3ccncc3)c[nH]c2c1` [Rockout, 3-pyridin-4-yl-1H-indole] displayed an IC50 on purified DDK [1] of 860 nM. Moreover, the thermal shift (ΔTm) on purified DDK [2] (setting [6]) is not below 2 °C. Consider `NC(=O)c1cc(-c2ccnc(N)n2)[nH]c1-c1ccccc1` [5-(2-Amino-pyrimidin-4-yl)-2-phenyl-1H-pyrrole-3-carboxamide], for which the concentration for half-maximal inhibition (IC50) with DDK was 22 nM. As for `C=CCc1c(C)nc2sc3c(N)ncnc3c2c1C` [7,9-dimethyl-8-prop-2-enylpyrido[2,3]thieno[2,4-d]pyrimidin-4-amine], in the experiment with DDK, the half-maximal inhibitory concentration (IC50) is 20 nM. As to `O=C1NC(=O)c2c1c1c3ccccc3n3c1c1c2c2ccccc2n1[C@H]1CC[C@@H]3O1` [SB 218078], the IC50 at purified DDK [1] worked out at 19.3 nM; in the experiment with HCC1954 cells [5], 2420 nM. Also, the Mcm2 phosphorylation entry in experiment [3] (HCC1954, SB 218078) is on record as “modestly inhibits Mcm2 phosphorylation”. Further, the “Apoptosis induction (Caspase 3/7 activity)” value in the experiment on HCC1954 cells [4] (HCC1954, 24 hours) is “low levels of apoptosis were induced”. On purified DDK [2] (setting [6]), the thermal shift (ΔTm) was not below 2 °C. As to `O=c1cc(N2CCOCC2)oc2c1ccc1ccccc12` [NU 7026], the ΔTm on purified DDK [2] (setting [7]) amounted to 1.2 °C. Regarding `Cc1cc(C(C)Nc2ccccc2)c2nc(N3CCOCC3)cc(=O)n2c1` (stereo not drawn) [PI 3-Kβ Inhibitor VI, TGX-221], on purified DDK [2] (library screen, 20 µM compound), the ΔTm came out at 0 °C. For the compound `O=C1N=C(NCc2ccccc2)S/C1=C\c1c[nH]c2ncccc12` [(5Z)-2-(Benzylamino)-5-(1H-pyrrolo[2,3-b]pyridin-3-ylmethylene)-1,3-thiazol-4(5H)-one], in the experiment on DDK, the IC50 is 9 nM. Consider `COc1ccc2c(c1)/C(=C/c1cnc[nH]1)C(=O)N2` [SU9516], for which, at purified DDK [2] (library screen, 20 µM compound), the ΔTm at 20 µM was found to be 0 °C.

With `Cc1ccc2c(=O)c3ccccc3n(CCCN)c2c1C.O=C(O)/C=C\C(=O)O` [ER 27319 maleate], the ΔTm on purified DDK [2] (library screen, 20 µM compound) is 0.5 °C.

For the compound `CO[C@H]1C[C@@H]2CC[C@@H](C)[C@@](O)(O2)C(=O)C(=O)N2CCCC[C@H]2C(=O)O[C@H]([C@H](C)C[C@@H]2CC[C@@H](O)[C@H](OC)C2)CC(=O)[C@H](C)/C=C(\C)[C@@H](O)[C@@H](OC)C(=O)[C@H](C)C[C@H](C)/C=C/C=C/C=C/1C` [Rapamycin], the ΔTm at 20 µM at purified DDK [2] (library screen, 20 µM compound) turned out to be 0 °C. For the compound Ro-31-8220, the ΔTm at purified DDK [2] (library screen, 20 µM compound) turned out to be 1.4 °C.

On to `C[S+]([O-])c1ccc(-c2nc(-c3ccc(F)cc3)c(-c3ccncc3)[nH]2)cc1.Cl` (stereo not drawn) [SB 203580 hydrochloride], for which, at purified DDK [2] (library screen, 20 µM compound), the ΔTm came to 0 °C.

Turning to `O=C1N=C(NCc2cccs2)SC1=Cc1ccc2ncccc2c1` [Cdk1 Inhibitor IV, RO-3306, 5-(6-Quinolinylmethylene)-2-[(2-thienylmethyl)amino]-4(5H)-thiazolone], the shift in melting temperature (ΔTm) on purified DDK [2] (library screen, 20 µM compound) worked out at 2.2 °C. On to `O=c1cc(N2CCOCC2)oc2c(-c3ccccc3)cccc12` [LY 294002], for which the ΔTm at 20 µM at purified DDK [2] (library screen, 20 µM compound) amounted to 0.8 °C. As to `O=C(O)/C=C/c1cc(Br)c(Br)c(Br)c1Br` [Casein Kinase II Inhibitor III, TBCA], the ΔTm at purified DDK [2] (library screen, 20 µM compound) worked out at 32 °C.

In the case of JAK Inhibitor I, the ΔTm on purified DDK [2] (library screen, 20 µM compound) was 1.2 °C. On to `O=C1NC(=O)c2c1c1c3ccccc3[nH]c1c1[nH]c3ccccc3c21` [Arcyriaflavin A], for which the ΔTm on purified DDK [2] (library screen, 20 µM compound) came out at 0.5 °C.

With `O=C1Cc2c([nH]c3ccc([N+](=O)[O-])cc23)-c2ccccc2N1` [Alsterpaullone], the ΔTm at 20 µM on purified DDK [2] (library screen, 20 µM compound) came out at 0.5 °C.

Regarding `NC(=O)Nc1sc(-c2ccccc2)cc1C(N)=O` [IKK-2 Inhibitor VI], the ΔTm at purified DDK [2] (library screen, 20 µM compound) was found to be 1.2 °C. Take `O=C1Nc2ccc3ncsc3c2/C1=C/c1cnc[nH]1` [PKR inhibitor, (8Z)-8-(1H-imidazol-5-ylmethylidene)-6H-pyrrolo[2,3-g][1,3]benzothiazol-7-one]: the concentration for half-maximal inhibition (IC50) against purified DDK [1] is 67.5 nM and ~70 nM; in the experiment with PKR, 210 nM; in the experiment on HCC1954 cells [5], 1700 nM. Besides, in experiment [3] (HCC1954, 2 µM PKR inhibitor), the Mcm2 phosphorylation entry is given as “strongly inhibited Mcm2 phosphorylation”. Moreover, the “Increase of Caspase 3/7 activity relative to the DMSO control” value with HCC1954 cells [4] (HCC1954, 2 µM, 24 hours) is listed as 20 fold. Moreover, the ΔTm at 20 µM at purified DDK [2] (library screen, 20 µM compound) worked out at 2.4 °C. The ΔTm on purified DDK [2] (setting [6]) is not below 2 °C. In the case of `COc1cc2ncnc(Nc3cccc(Cl)c3)c2cc1OC` [AG 1478], the thermal shift (ΔTm) at purified DDK [2] (library screen, 20 µM compound) was 0.3 °C.

As for `NC(=O)c1ccc(-c2nc(-c3ccc4c(c3)OCO4)c(-c3ccccn3)[nH]2)cc1` [SB 431542], at purified DDK [2] (library screen, 20 µM compound), the shift in melting temperature (ΔTm) at 20 µM was 0 °C. Regarding `O=C1Nc2ccc(I)cc2/C1=C1/Nc2ccccc2/C1=N\O` [Indirubin-3'-monoxime, 5-Iodo-], at purified DDK [2] (library screen, 20 µM compound), the ΔTm is 0.5 °C. Regarding `CCN(CC)C(=O)c1ccc(Nc2nc(OCC3CCCCC3)c3[nH]cnc3n2)cc1` [Cdk2 Inhibitor IV, NU6140], the ΔTm on purified DDK [2] (library screen, 20 µM compound) came to 0.2 °C. `CCN(CC)CCCCN1c2ccccc2Oc2ccc(Cl)cc21.Cl` [10-DEBC hydrochloride]: the ΔTm at purified DDK [2] (library screen, 20 µM compound) amounted to 0.8 °C. Consider `O=c1cc(-c2cccc3c2Sc2ccccc2S3)oc(N2CCOCC2)c1` [ATM Kinase Inhibitor], for which the ΔTm on purified DDK [2] (library screen, 20 µM compound) came out at 1.1 °C. As for `O=C(Nc1ccncc1)Nc1c(Cl)cc(Cl)cc1Cl` [Rho Kinase Inhibitor II], on purified DDK [2] (library screen, 20 µM compound), the thermal shift (ΔTm) stood at 0 °C. Take Bisindolylmaleimide III, Hydrochloride: the shift in melting temperature (ΔTm) on purified DDK [2] (library screen, 20 µM compound) came to 51 °C. On to `COc1ccc2nc3c(c(C)nn3C)c(NCCOCCO)c2c1` [Ras/Rac TransformaEon Blocker, SCH 51344], for which, on purified DDK [2] (library screen, 20 µM compound), the ΔTm came to 0.5 °C. Regarding JAK3 Inhibitor II, the thermal shift (ΔTm) at purified DDK [2] (library screen, 20 µM compound) is 0.8 °C. The same measure, in the same setting: then `O=C(c1ccc(Nc2nccc(-c3cc4ccccc4s3)n2)cc1)N1CCC(N2CCCC2)CC1` [IKK 16], with 1.5 °C.

With `Cl.O=c1cc(N2CCOCC2)oc2c(-c3ccccc3)cccc12` [LY 294002 hydrochloride], the ΔTm at purified DDK [2] (library screen, 20 µM compound) was found to be 0.8 °C. Turning to `O=S(=O)(c1cccc2cnccc12)N1CCCNCC1` [Fasudil hydrochloride], the shift in melting temperature (ΔTm) at 20 µM at purified DDK [2] (library screen, 20 µM compound) stood at 0.9 °C.

With `O=C(O)c1ccc2c3c1cccc3c(=O)n1c3ccccc3nc21` [STO-609], the ΔTm at 20 µM at purified DDK [2] (library screen, 20 µM compound) was determined as 0.2 °C.

In the case of IGF-1R Inhibitor II, the thermal shift (ΔTm) at purified DDK [2] (library screen, 20 µM compound) stood at 0 °C. In the case of `CN(C)c1ccc(/C=C2\C(=O)Nc3ccccc32)cc1` [SU 4312], the thermal shift (ΔTm) on purified DDK [2] (setting [7]) amounted to 0.2 °C. Take JAK3 Inhibitor IV: the shift in melting temperature (ΔTm) at purified DDK [2] (library screen, 20 µM compound) was 0.3 °C. For `Cc1nc(N)sc1-c1ccnc(Nc2cccc([N+](=O)[O-])c2)n1` [Cdk2/9 Inhibitor], the ΔTm at purified DDK [2] (library screen, 20 µM compound) stood at 0.3 °C. Same read-out and setting: then `Cc1ncc2ccccc2c1C#N` [4-Cyano-3-methylisoquinoline], with 0 °C.

On to `Cc1ccc([N+](=O)[O-])cc1S(=O)(=O)N(C)/N=C/c1cnc2ccc(Br)cn12` [PI 3-Kα Inhibitor VIII, N-((1E)-(6-Bromoimidazo[1,2-a]pyridin-3-yl)methylene)-N'-methyl-N''-(2-methyl-5-nitrobenzene)sulfonohydrazide, HCl], for which half-maximal inhibition at purified DDK [1] (IC50) required 1300 nM. In addition, the ΔTm at 20 µM at purified DDK [2] (library screen, 20 µM compound) stood at 2.6 °C.

By IC50 is commonly meant the point on the concentration scale where inhibition reaches its midpoint. As a reminder, the ΔTm is the shift of the melting midpoint relative to a reference.

The record behind these values is PMC4239038, “The Potent Cdc7-Dbf4 (DDK) Kinase Inhibitor XL413 Has Limited Activity in Many Cancer Cell Lines and Discovery of Potential New DDK Inhibitor Scaffolds” (PLoS ONE, 2014).
